Data set [1] relates to Measles morbillivirus. Kind of data set: Antiviral activity against Measles virus expressing firefly luciferase rMV2/Luc infected in human HEK293 cells assessed as bioluminescence level after 6 mins by luminometry. It is filed as functional. The following applies: for MIC50: Measles morbillivirus, 0.1 h.
Data set [2] has as its system Measles morbillivirus. The data set can be described thus: Antiviral activity against measles virus expressing firefly luciferase rMV2/Luc infected in human HEK293 cells assessed as bioluminescence level at 16 to 195 nM after 6 mins by luminometry in presence of dihydroorotic acid. It counts as functional, organism-based.
Data set [3] deals with Measles morbillivirus. The data set can be described thus: Antiviral activity against measles virus expressing firefly luciferase rMV2/Luc infected in human HEK293 cells assessed as bioluminescence level at 16 to 195 nM after 6 mins by luminometry in presence of uridine. It counts as functional, organism-based.
The subject of data set [4] is Measles morbillivirus. The data set can be described thus: Antiviral activity against measles virus expressing firefly luciferase rMV2/Luc infected in human HEK293 cells assessed as bioluminescence level at 16 to 195 nM after 6 mins by luminometry in presence of orotic acid. It is filed as functional, organism-based.
Another data set relates to HEK293. The data set can be described thus: Cytotoxicity against human HEK293 cells assessed as cell viability after 24 hrs by CellTiter-Glo assay. It counts as cell-based. To be noted: hek293, 24 h.
Data set [5] concerns the target Dihydroorotate dehydrogenase (quinone), mitochondrial (Homo sapiens, UniProt Q02127). Kind of data set: Inhibition of His-tagged human DHODH assessed as reduction of DCIP by spectrophotometry.

Values after ≈ are worked out from the molar mass of the structure shown. Active and inactive are the calls of the source. No cut-off for these calls is given here.

Sequence of Dihydroorotate dehydrogenase (quinone), mitochondrial (Q02127 whole entry): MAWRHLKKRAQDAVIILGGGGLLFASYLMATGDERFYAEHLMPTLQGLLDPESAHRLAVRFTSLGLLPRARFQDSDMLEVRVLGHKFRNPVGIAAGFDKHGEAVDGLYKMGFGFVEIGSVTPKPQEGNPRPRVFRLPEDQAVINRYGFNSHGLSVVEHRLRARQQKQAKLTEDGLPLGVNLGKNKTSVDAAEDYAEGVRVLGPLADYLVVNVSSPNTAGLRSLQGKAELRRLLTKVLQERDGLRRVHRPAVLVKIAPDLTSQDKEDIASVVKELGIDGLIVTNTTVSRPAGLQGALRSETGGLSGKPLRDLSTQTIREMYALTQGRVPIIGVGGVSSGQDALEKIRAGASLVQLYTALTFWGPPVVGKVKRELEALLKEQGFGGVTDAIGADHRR

Turning to `Cc1cnc(-n2nc(OC(C)C)c(Oc3c(F)cccc3F)c2C)nc1`, the pMIC50 in the data set on Measles morbillivirus [1] was 7.9.
Consider `CCOc1nn(-c2ncc(C)cn2)c(C)c1Cc1ccccc1`, for which, in the data set on Measles morbillivirus [1], the pMIC50 turned out to be 7.5.
Take `Cc1cnc(-n2nc(OC(C)C)c(Oc3c(F)cccc3F)c2C)nc1O`: the pMIC50 with Measles morbillivirus [1] is given as 6.8.
Still for that read-out and setting: the figure for `CCOc1nn(-c2ncc(CC)cn2)c(C)c1Oc1ccccc1C(F)(F)F` is 6.2; for `CCc1cnc(-n2nc(OC(C)C)c(Oc3cccc(F)c3F)c2C)nc1` it is 7.2.
Consider `CCc1cnc(-n2nc(O)c(Cc3ccccc3)c2C)nc1`, for which the pMIC50 in the data set with Measles morbillivirus [1] is recorded as 6.3.
On the same count and under the same terms, the result for `CCOc1nn(-c2ncc(CC)cn2)c(C)c1Oc1ccccc1F` reads 7.2; that for `CCc1cnc(-n2nc(CC(C)C)c(Cc3ccccc3)c2C)nc1`, 7.5; that for `CCOc1nn(-c2ncc(CC)cn2)c(C)c1Oc1cccc(Cl)c1Cl`, 6.8.
The same measure, in the same setting: the figure for `Cc1nn(-c2ncc(C3CC3)cn2)c(OC(C)C)c1Cc1ccccc1` is 6.8; for `Cc1c(Oc2c(F)cccc2F)c(OC(C)C)nn1-c1nccc(O)n1` it is below 5.
Still for that read-out and setting: the figure for `CCc1cnc(-n2nc(OC(C)C)c(Oc3cc(F)ccc3F)c2C)nc1` is 7.3; for `CCOc1nn(-c2ncc(CC)cn2)c(C)c1C(=O)c1ccccc1` it is 6.2; for `CCc1cnc(-n2nc(OC(C)C)c(Oc3c(F)cccc3F)c2C)nc1O` it is 7.8.
As for `Cc1c(Oc2c(F)cccc2F)c(OC(C)C)nn1-c1ncccn1`, in the data set on Measles morbillivirus [1], the pMIC50 came to 5.6.
On to `CCc1cnc(-n2nc(OCCO)c(Cc3ccccc3)c2C)nc1`, for which the pMIC50 in the data set with Measles morbillivirus [1] is given as 6.6.
On the same count and under the same terms, the figure for `CCc1cnc(-n2nc(OC(C)C)c(Cc3cccc(F)c3)c2C)nc1` is 8.2; for `Cc1c(Oc2c(F)cccc2F)c(OC(C)C)nn1-c1ncc(C2CC2)cn1` it is 8.9; for `C/C(O)=C(\C#N)C(=O)Nc1ccc(C(F)(F)F)cc1` [TERIFLUNOMIDE] it is 5.3.
Still for that read-out and setting: the result for `Cc1c(Cc2ccccc2)c(OC(C)C)nn1-c1ncc(C2CC2)cn1` reads 8.2; that for `CCOc1nn(-c2ncc(Br)cn2)c(C)c1Cc1ccccc1`, 7.
As to `CCOc1nn(-c2ncc(CC)cn2)c(C)c1Oc1ccccc1Cl`, the pMIC50 in the data set on Measles morbillivirus [1] came out at 6.9.
Consider `CCN(CC)Cc1c(Cc2ccccc2)c(OC(C)C)nn1-c1ncc(C2CC2)cn1`, for which the pMIC50 with Measles morbillivirus [1] was found to be 5.1.
On to `CCc1cnc(-n2nc(OCCOCc3ccccc3)c(Cc3ccccc3)c2C)nc1`, for which the pMIC50 in the data set on Measles morbillivirus [1] is recorded as 7.3.
As for `CCOc1nn(-c2ncc(CC)cn2)c(C)c1Cc1ccccc1`, the outcome in the data set on Measles morbillivirus [2] was Active. Moreover, the outcome in the data set on Measles morbillivirus [3] and in the data set on Measles morbillivirus [4] was inactive. For the same molecule, in the data set on Measles morbillivirus [1], the pMIC50 worked out at 7.7.
Take `CCOc1nn(-c2ncc(C3CC3)cn2)c(C)c1Cc1ccccc1`: the pMIC50 in the data set with Measles morbillivirus [1] turned out to be 7.6.
With `CCC(C)Oc1nn(-c2ncc(C3CC3)cn2)c(C)c1Cc1ccccc1` (centres undefined), in the data set on Measles morbillivirus [1], the pMIC50 came to 8.7.
In the case of `CCCc1cnc(-n2nc(OCC)c(Cc3ccccc3)c2C)nc1`, the pMIC50 in the data set with Measles morbillivirus [1] is given as 7.5.
Turning to `CCOc1nn(-c2ncc(CC)cn2)c(C)c1Sc1ccccc1`, the pMIC50 with Measles morbillivirus [1] amounted to 6.9.
In the case of `CCOc1nn(-c2ncc(CC)cn2)c(C)c1Oc1ccccc1`, in the data set with Measles morbillivirus [1], the pMIC50 is reported as 6.2.
On the same count and under the same terms, the figure for `CCc1cnc(-n2nc(OC(C)C)c(Oc3ccc(F)cc3)c2C)nc1` is 6.5.
For the molecule `CCOc1nn(-c2ccc(C)cn2)c(C)c1Cc1ccccc1`, in the data set with HEK293, the Activity result was “Non-toxic”. In addition, in the data set with Measles morbillivirus [1], the pMIC50 came to 6.2 and the MIC50 was found to be 0.65 µM (≈ 0.2 µg/mL).
With `Cc1c(C(O)c2ccccc2)c(OC(C)C)nn1-c1ncc(C2CC2)cn1` (centres undefined), the pMIC50 in the data set with Measles morbillivirus [1] is given as 8.8.
In the case of `Cc1c(Oc2c(F)cccc2F)c(OC(C)C)nn1-c1ncc(F)cn1`, in the data set on Measles morbillivirus [1], the pMIC50 was determined as 6.6.
As to `CCOc1nn(-c2ncc(CC)c(C)n2)c(C)c1Cc1ccccc1`, the pMIC50 in the data set on Measles morbillivirus [1] stood at 7.4.
Turning to `CCc1cnc(-n2nc(OC(C)C)c(Oc3cccc(F)c3)c2C)nc1`, the pMIC50 in the data set with Measles morbillivirus [1] turned out to be 6.6.
Same read-out and setting: the figure for `CCCCCc1cnc(-n2nc(OCC)c(Cc3ccccc3)c2C)nc1` is below 5; for `CCOc1nn(-c2ncc(CC)cn2)c(C)c1-c1ccccc1` it is 5.4.
As for `CCCc1cnc(-n2nc(OC(C)C)c(Oc3c(F)cccc3F)c2C)nc1O`, in the data set on Measles morbillivirus [1], the pMIC50 turned out to be 7.2.
The same measure, in the same setting: the figure for `CCOc1nn(-c2ncc(CC)cn2)c(C)c1Oc1cc(Cl)ccc1Cl` is 7.6; for `CCCc1cnc(-n2nc(OC(C)C)c(Oc3c(F)cccc3F)c2C)nc1` it is 8.5.
Turning to `CCc1cnc(-n2nc(OC(C)C)c(Oc3c(F)cccc3F)c2C)nc1`, the pMIC50 in the data set on Measles morbillivirus [1] is given as 9.1.
On the same count and under the same terms, the result for `CCc1cnc(-n2nc(OCCCN(C)C)c(Cc3ccccc3)c2C)nc1` reads 6.1; that for `CCc1ccc(-n2nc(OC(C)C)c(Cc3ccccc3)c2C)cc1`, 6.2; that for `Cc1c(Oc2c(F)cccc2F)c(OC(C)C)nn1-c1ncc(Br)cn1`, 7.9.
For `Cc1c(Cc2ccccc2)c(O)nn1-c1ncc(C2CC2)cn1`, the pMIC50 in the data set with Measles morbillivirus [1] is 5.6.
Consider `CCc1cnc(-n2nc(OC(C)C)c(Oc3ccc(F)cc3F)c2C)nc1`, for which the pMIC50 in the data set with Measles morbillivirus [1] was 7.9.
On the same count and under the same terms, the result for `COCc1c(Cc2ccccc2)c(OC(C)C)nn1-c1ncc(C2CC2)cn1` reads 7.2; that for `CCc1cnc(-n2nc(OC(C)C)c(Cc3ccccc3F)c2C)nc1`, 8.8.
Regarding `CCc1cnc(-n2nc(OC(C)C)c(Cc3ccc(F)cc3)c2C)nc1`, in the data set on Measles morbillivirus [1], the pMIC50 was 7.4.
The same measure, in the same setting: the figure for `CCOc1nn(-c2ncc(OC)cn2)c(C)c1Cc1ccccc1` is 6.2; for `CCC(CC)Oc1nn(-c2ncc(C3CC3)cn2)c(C)c1Cc1ccccc1` it is 8.8; for `CCOc1nn(-c2ncc(CC)cn2)c(C)c1I` it is 4.9.
Regarding `CCc1cnc(-n2nc(OC(C)C)c(Oc3ccccc3F)c2C)nc1`, the pMIC50 in the data set with Measles morbillivirus [1] is on record as 8.1.
In the case of `CCOc1nn(-c2ncc(CC)cn2)c(C)c1Oc1ccccc1Br`, the half-maximal inhibitory concentration (IC50) in data set [5] is 0.126 µM. In addition, the pMIC50 in the data set with Measles morbillivirus [1] is 6.9.
As for `CCOc1nn(-c2nccc(C)n2)c(C)c1Cc1ccccc1`, the pMIC50 in the data set on Measles morbillivirus [1] was 6.1.
Consider `CCOc1nn(-c2ncccn2)c(C)c1Cc1ccccc1`, for which the Activity result with HEK293 is “Non-toxic”. In the data set on Measles morbillivirus [1], the pMIC50 worked out at 5.5 and the MIC50 came to 2.72 µM (≈ 0.801 µg/mL).
Consider `CCc1cnc(-n2nc(OC(C)C)c(Cc3ccccc3)c2C)nc1`, for which the pMIC50 with Measles morbillivirus [1] is 8.4.
In the case of `CCOc1nn(-c2ncc(CC)cn2)c(C)c1Oc1ccc(C(F)(F)F)cc1`, the pMIC50 in the data set on Measles morbillivirus [1] stood at 5.2.
`COc1cnc(-n2nc(OC(C)C)c(Oc3c(F)cccc3F)c2C)nc1`: the pMIC50 with Measles morbillivirus [1] stood at 7.3.
Consider `CC(C)Oc1nn(-c2ncc(C3CC3)cn2)c(CN(C)C)c1Cc1ccccc1`, for which, in the data set with Measles morbillivirus [1], the pMIC50 is listed as below 5.
On to `COc1nn(-c2ncc(C3CC3)cn2)c(C)c1Cc1ccccc1`, for which the pMIC50 in the data set on Measles morbillivirus [1] is 7.3.
As to `CCOc1nn(-c2ncc(CC)cn2)c(C)c1Oc1cc(Cl)cc(Cl)c1`, the pMIC50 in the data set on Measles morbillivirus [1] is recorded as 5.9.
For `Cc1c(Cc2ccccc2F)c(OC(C)C)nn1-c1ncc(C2CC2)cn1`, the half-inhibitory concentration (IC50) in data set [5] is 0.0126 µM. For the same molecule, the pMIC50 with Measles morbillivirus [1] stood at 8.9.
On to `CCOc1nn(-c2ncc(CC)cn2)c(C)c1Oc1cccc(C(F)(F)F)c1`, for which, in the data set with Measles morbillivirus [1], the pMIC50 turned out to be 7.3.

Source of the values: ChEMBL document CHEMBL3407366, “Original 2-(3-alkoxy-1H-pyrazol-1-yl)pyrimidine derivatives as inhibitors of human dihydroorotate dehydrogenase (DHODH)” (J Med Chem, 2015).
